The test system of one experiment is HT-29. Kind of experiment: DFMO / phospho-sulindac I synergy, cell growth at 48 h, HT-29. The format is cell-based, human. The following applies: HT-29, 48 h; DFMO 5 mM, phospho-sulindac I 40 μM. On the procedure:
A—Left panel: Cell viability was determined in HT-29 (full bars) and SW-480 (empty bars) cells after 48 h of incubation with 5 mM DFMO, 40 μM phospho-sulindac (P-S) or simultaneous combination of DFMO and P-S. Data are expressed as percentage of control cells (cells incubated only with DMSO). […] Right panel: In this isobologram the additivity line connects the IC50 value of each compound used alone. A and B represent two different dose pairs of each compound (their respective concentrations are shown in parentheses). The location of both A and B below the additivity line signifies synergy. […] DNA content was determined from propidium iodide (PI) fluorescence. C—Apoptosis and necrosis were determined by combined staining with annexin V and PI and determining fluorescence intensity. The percentages of apoptotic cells were determined using the dual staining with annexin V and propidium iodide and are indicated in each quadrant: left bottom quadrant, viable cells (annexin V-negative/PI-negative); right bottom quadrant, early apoptotic cells (annexin V-positive/PI-negative); right upper quadrant, late apoptotic cells (annexin V-positive/PI-positive); left upper quadrant, necrotic cells (annexin V-negative, PI-positive). […]

The subject of a further experiment is BxPC-3. Kind of experiment: Cell viability (MTT) assay, 24-h IC50, BxPC-3. The settings on record: Homo sapiens, BXPC-3, 24 h, read-out: 24-h IC50.

Protocol for BxPC-3: Cells were incubated at 37° C. in 5% CO2. Cells were seeded at 5.5×10^4 cells/cm^2, allowed to attach overnight, and the following morning cells were treated with each of the test compounds.
Cell viability assay: We used an assay based on the reduction of 3-(4,5-dimethylthiazol-2-yl)-2,5-diphenyltetrazolium bromide dye (MTT), which was determined according to the manufacture's protocol (Promega, Madison, Wis., USA).

Broadly, the IC50 is the point on the concentration scale where inhibition reaches its midpoint. On to `CCOP(=O)(OCC)OCCCCOC(=O)CC1=C(C)/C(=C/c2ccc([S+](C)[O-])cc2)c2ccc(F)cc21` (centres unmarked) [Phospho-sulindac I], for which the “reduction in cell number” value with HT-29 is 41%. Moreover, the IC50 with BxPC-3 is 62 µM.

The record behind these values is patent US8236820B2, “Anti-inflammatory compounds and uses thereof” (priority 2007, dated 2012).
